We go through three compounds from patent US4997849A, “Microbial transformation of simvastatin” (Merck & Co., Inc., priority 1989, dated 1991).

For data set [1], the target named is T1, HMG-CoA reductase (Rattus norvegicus, UniProt P51639).
T1 construct: from tissue
T1 sequence (P51639 1-887): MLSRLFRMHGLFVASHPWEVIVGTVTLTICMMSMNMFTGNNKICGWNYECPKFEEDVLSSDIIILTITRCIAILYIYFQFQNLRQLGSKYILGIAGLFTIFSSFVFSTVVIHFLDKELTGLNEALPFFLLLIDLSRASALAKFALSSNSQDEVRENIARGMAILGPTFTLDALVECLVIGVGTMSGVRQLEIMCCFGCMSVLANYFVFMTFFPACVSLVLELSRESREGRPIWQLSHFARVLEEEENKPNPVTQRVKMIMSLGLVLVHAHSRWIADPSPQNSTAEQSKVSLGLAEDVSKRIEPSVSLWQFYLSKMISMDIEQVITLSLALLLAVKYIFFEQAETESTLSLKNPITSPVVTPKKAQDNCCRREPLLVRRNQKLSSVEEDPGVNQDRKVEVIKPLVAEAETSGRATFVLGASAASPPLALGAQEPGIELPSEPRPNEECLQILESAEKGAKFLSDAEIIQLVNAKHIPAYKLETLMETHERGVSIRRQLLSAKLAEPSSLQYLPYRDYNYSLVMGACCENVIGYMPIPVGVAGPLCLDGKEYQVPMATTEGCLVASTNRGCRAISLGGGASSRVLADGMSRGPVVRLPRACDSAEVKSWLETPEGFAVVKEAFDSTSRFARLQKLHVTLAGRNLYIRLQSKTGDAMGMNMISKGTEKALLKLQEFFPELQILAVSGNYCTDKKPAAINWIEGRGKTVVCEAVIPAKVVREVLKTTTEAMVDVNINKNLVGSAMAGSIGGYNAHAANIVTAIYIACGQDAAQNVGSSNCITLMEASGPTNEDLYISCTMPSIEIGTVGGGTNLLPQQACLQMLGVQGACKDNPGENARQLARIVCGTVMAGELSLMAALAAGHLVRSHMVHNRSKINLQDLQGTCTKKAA
As to the kind of experiment: intrinsic HMG-CoA reductase inhibition activity, in vitro protocol of J. Med. Chem., 1985, 28, page 347. Type of data set: biochemical. As to conditions: potassium salt. The method, then:
The intrinsic HMG-CoA reductase inhibition activity of the claimed compounds is measured in the in vitro protocol described in J. Med. Chem., 1985, 28, page 347.

Data set [2] can be described thus: reversion of free dihydroxy acid to parent lactone on standing. Type of data set: physicochemical. As to conditions: on standing at room temperature. The method, then:
The sodium salt of the compound II from Example 8 is dissolved in 2 ml of ethanol-water (1:1; v:v) and added to 10 ml of 0.1N hydrochloric acid from which the dihydroxy acid is extracted with ethyl acetate. The organic extract is washed once with water, dried (Na2 SO4), and evaporated in vacuo with a bath temperature not exceeding 30° C.

The target of data set [3] is T2, HMG-CoA reductase (Homo sapiens, UniProt P04035).
T2 sequence (P04035 1-888): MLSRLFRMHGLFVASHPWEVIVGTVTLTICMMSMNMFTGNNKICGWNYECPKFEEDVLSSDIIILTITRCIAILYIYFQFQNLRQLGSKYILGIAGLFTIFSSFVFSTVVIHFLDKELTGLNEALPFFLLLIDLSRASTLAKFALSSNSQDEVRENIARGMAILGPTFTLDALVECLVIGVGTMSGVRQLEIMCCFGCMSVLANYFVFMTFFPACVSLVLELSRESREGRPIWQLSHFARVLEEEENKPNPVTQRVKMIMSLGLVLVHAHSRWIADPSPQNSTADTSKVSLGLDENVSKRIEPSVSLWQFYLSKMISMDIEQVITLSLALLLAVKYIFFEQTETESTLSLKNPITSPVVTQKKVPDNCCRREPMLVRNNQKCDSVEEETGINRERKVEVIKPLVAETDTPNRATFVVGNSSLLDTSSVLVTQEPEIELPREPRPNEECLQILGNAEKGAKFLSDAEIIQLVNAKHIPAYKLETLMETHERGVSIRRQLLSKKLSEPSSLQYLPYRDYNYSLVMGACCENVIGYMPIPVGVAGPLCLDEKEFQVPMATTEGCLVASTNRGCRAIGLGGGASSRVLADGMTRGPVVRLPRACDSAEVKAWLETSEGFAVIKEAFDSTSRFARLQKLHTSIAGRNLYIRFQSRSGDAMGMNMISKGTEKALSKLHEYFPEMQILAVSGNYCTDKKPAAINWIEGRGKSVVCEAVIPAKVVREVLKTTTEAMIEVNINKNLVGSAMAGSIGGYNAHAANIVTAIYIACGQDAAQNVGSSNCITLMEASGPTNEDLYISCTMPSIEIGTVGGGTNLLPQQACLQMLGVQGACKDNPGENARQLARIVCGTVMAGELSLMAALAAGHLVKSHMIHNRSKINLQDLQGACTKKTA
As to conditions: relative to lovastatin; cited from earlier work.

Take `CC1C=Cc2cc(CO)ccc2C1CC[C@@H](O)C[C@@H](O)CC(=O)O` (stereo partly drawn): on HMG-CoA reductase [1], the IC50 (commonly the concentration at which inhibition is half-maximal) was 0.897 µM.

Regarding `CC1C=Cc2cc(CO)ccc2C1CC[C@@H](O)C[C@@H](O)CC(=O)O` (stereo partly drawn) [dihydroxy acid derivative], the “reversion to the corresponding parent lactone” value in data set [2] is on record as “slowly reverts to the corresponding parent lactone on standing at room temperature”.

Take `CCC(C)(C)C(=O)O[C@H]1C[C@@H](C)C=C2C=C[C@H](C)[C@H](CC[C@@H]3C[C@@H](O)CC(=O)O3)[C@H]21` [simvastatin]: the “HMG-CoA reductase inhibitor potency compared with lovastatin” value on HMG-CoA reductase [3] is “even more potent HMG-CoA reductase inhibitor than lovastatin”.
